Where two headings read alike, the source gives them in different places. Some results are limits rather than exact numbers.

Assay in all cases: stopped-flow CO2 hydration assay
Format in all cases: biochemical

In assay [1] the target is T1, hCA II (Homo sapiens, UniProt P00918).
T1 construct: gene CA2; recombinant, obtained in house
An excerpt:
stopped-flow CO2 hydration assay on hCA II

A further assay has as its target T2, hCA I (Homo sapiens, UniProt P00915).
T2 construct: gene CA1; recombinant, obtained in house
The source says:
stopped-flow CO2 hydration assay on hCA I

The target of assay [2] is T1, hCA II. Particulars: read-out: hCA I.

T2 sequence (P00915 2-261): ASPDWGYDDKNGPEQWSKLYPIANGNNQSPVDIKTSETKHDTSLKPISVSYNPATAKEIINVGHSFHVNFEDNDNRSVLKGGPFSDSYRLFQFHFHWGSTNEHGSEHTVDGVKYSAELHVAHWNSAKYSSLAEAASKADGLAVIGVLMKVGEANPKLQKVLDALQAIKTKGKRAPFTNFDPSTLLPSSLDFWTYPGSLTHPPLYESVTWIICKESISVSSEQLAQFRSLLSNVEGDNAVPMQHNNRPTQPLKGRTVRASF

In the case of `C=CCOCC(O)C[Se]C(=O)Nc1cc(C)cc(C)c1` (racemic) [3q, 3 q], the Ki on hCA II [1] was found to be 79.3 µM; on hCA I, 67.5 µM.

As for `Cc1ccc(NC(=O)[Se]c2ccccc2)cc1` [3c, 3 c], the Ki on hCA II [1] stood at 8.4 µM; at hCA I, 25.9 µM.

Take `O=C(Nc1ccccc1)[Se]c1ccccc1` [3b, 3 b]: the Ki was found to be 4.1 µM on hCA II [1] and 40.4 µM on hCA I.

For `Cc1ccc(S(=O)(=O)N[C@@H](C)C[Se]C(=O)Nc2cc(C)cc(C)c2)cc1` [3u, 3 u], the Ki at hCA II [2] and at hCA I was over 100 µM in each case.

For `O=C(NCc1ccco1)[Se]c1ccccc1` [3i, 3 i], the values for the Ki at hCA II [1] and on hCA I were 40.4 µM and 8.8 µM, respectively.

With `Cc1ccc([Se]C(=O)Nc2ccc(Br)cc2)cc1` [3k, 3 k], the Ki at hCA II [1] worked out at 11.6 µM; on hCA I it was 38.6 µM.

As for `Cc1cc(C)cc(NC(=O)[Se][C@@H]2CCCC[C@H]2O)c1` (relative stereo) [3s, 3 s], the Ki was 84.6 µM at hCA II [1] and 74.3 µM on hCA I.

Regarding `O=C(Nc1ccc(Br)cc1)[Se]c1ccccc1` [3h, 3 h], the Ki at hCA II [1] is 8.6 µM; at hCA I, 13.8 µM.

On to `CC(C)OCC(O)C[Se]C(=O)NC12CC3CC(CC(C3)C1)C2` (racemic) [3r, 3 r], for which the values for the Ki at hCA II [1] and at hCA I were 79.4 µM and 92.7 µM, respectively.

`CCCCCCCCCCCC[Se]C(N)=O` [3n, 3 n]: the results for the Ki on hCA II [1] and on hCA I were 85.2 µM and 90.3 µM, respectively.

In the case of `O=C(Nc1ccc(Cl)cc1)[Se]c1ccccc1` [3g, 3 g], the Ki at hCA II [1] was 13.1 µM; on hCA I, 42.5 µM.

For `Cc1ccccc1[Se]C(=O)Nc1ccc(Br)cc1` [3l, 3 l], the figures for the Ki at hCA II [1] and on hCA I were 8 µM and 13.4 µM, respectively.

For `O=C(Nc1ccc(Br)cc1)[Se]Cc1ccccc1` [3p, 3 p], the values for the Ki on hCA II [1] and on hCA I were 39.9 µM and 85 µM, respectively.

`Cc1cc(C)cc(NC(=O)[Se]c2ccccc2)c1` [3a, 3 a]: the Ki on hCA II [1] worked out at 5.3 µM; at hCA I, 49.5 µM.

`O=C(Nc1ccc(F)cc1)[Se]c1ccccc1` [3f, 3 f]: the Ki at hCA II [1] is 9.4 µM; at hCA I it was 15.3 µM.

As to `COc1cccc(NC(=O)[Se]c2ccccc2)c1` [3d, 3 d], the Ki on hCA II [1] stood at 7.9 µM; at hCA I, 49.3 µM.

Take `O=C(NCc1ccco1)[Se][C@@H]1CCCC[C@H]1O` (relative stereo) [3t, 3 t]: the Ki on hCA II [1] was found to be 83.4 µM; on hCA I, 67.4 µM.

In the case of `O=C(Nc1ccccc1F)[Se]c1ccccc1` [3e, 3 e], the Ki was 9.2 µM on hCA II [1] and 30.8 µM at hCA I.

In the case of `CCCCCCCCCCCC[Se]C(=O)Nc1ccc(Br)cc1` [3m, 3 m], the figures for the Ki on hCA II [1] and at hCA I were 87.4 µM and 92.1 µM, respectively.

Turning to `NC(=O)[Se]c1ccccc1` [3j, 1‐(phenylselanyl)formamide], the Ki was determined as 6.8 µM on hCA II [1] and 9.8 µM on hCA I.

The record behind these values is paper PMC9310613, “Selenocarbamates As a Prodrug‐Based Approach to Carbonic Anhydrase Inhibition” (Chemmedchem, 2022).
